According to ChEMBL document CHEMBL5505960, “Synthesis and evaluation of butylphthalide-scutellarein hybrids as multifunctional agents for the treatment of Alzheimer's disease” (Eur J Med Chem, 2024):
The source made the active and inactive calls. No cut-off for these calls is given here.

Tests used:
[1] = Antioxidant activity assessed as trolox equivalent of ORAC radical scavenging activity by ORAC-FL assay relative to trolox; format: functional
[2] = target: Amyloid-beta precursor protein (Homo sapiens) (UniProt P05067); assay: Inhibition of Cu2+ induced amyloid beta (1 to 42)(unknown origin) fibrillation at 25 uM by ThT fluorescence assay relative to control
Sequence of Amyloid-beta precursor protein (Homo sapiens) (P05067 whole entry): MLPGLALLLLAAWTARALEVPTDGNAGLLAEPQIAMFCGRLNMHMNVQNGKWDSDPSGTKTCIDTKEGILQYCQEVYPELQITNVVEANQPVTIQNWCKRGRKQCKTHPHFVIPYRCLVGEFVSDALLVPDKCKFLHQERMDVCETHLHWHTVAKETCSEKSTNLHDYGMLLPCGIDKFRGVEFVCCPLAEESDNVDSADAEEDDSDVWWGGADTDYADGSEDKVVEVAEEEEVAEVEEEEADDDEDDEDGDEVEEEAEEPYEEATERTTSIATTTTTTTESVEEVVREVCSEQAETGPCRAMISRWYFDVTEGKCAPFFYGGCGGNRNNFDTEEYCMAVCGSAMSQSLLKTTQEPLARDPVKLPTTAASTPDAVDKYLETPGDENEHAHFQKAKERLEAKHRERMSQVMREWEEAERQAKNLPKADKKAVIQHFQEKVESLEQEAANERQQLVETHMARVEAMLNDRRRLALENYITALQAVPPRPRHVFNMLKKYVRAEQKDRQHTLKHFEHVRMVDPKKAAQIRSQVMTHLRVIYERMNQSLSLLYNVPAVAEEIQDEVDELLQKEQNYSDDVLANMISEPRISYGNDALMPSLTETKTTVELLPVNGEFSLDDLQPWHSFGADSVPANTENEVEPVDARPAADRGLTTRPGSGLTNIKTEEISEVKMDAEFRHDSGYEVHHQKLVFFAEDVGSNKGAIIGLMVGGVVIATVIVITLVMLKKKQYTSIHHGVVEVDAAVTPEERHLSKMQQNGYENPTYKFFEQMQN

[3] = target: Amyloid-beta precursor protein (Homo sapiens) (UniProt P05067); assay: Disaggregation of self-induced amyloid beta (1 to 42) (unknown origin) fibrils at 25 uM by ThT fluorescence assay relative to control
HT-22 [4] = assay: Neuroprotective activity against amyloid beta (1 to 42)-induced injury in mouse HT-22 cells assessed as reversal of reduced cell synapse length at 2.5 to 10 uM measured after 24 hrs […]; format: functional, cell-based; conditions: dose 2.5-10 µM
HT-22 [5] = assay: Neuroprotective activity against amyloid beta (1 to 42)-induced injury in mouse HT-22 cells assessed as increase in cell viability at 10 uM incubated for 24 hrs by MTT assay relative to control; format: functional
HT-22 [6] = assay: Neuroprotective activity against amyloid beta (1 to 42)-induced injury in mouse HT-22 cells assessed as increase in cell viability at 2.5 uM incubated for 24 hrs by MTT assay relative to control; format: functional
HT-22 [7] = assay: Neuroprotective activity against amyloid beta (1 to 42)-induced injury in mouse HT-22 cells assessed as inhibition of ROS accumulation measured after 24 hrs by DCFH-DA staining based fluorescence microscopy analysis; format: functional, cell-based; conditions: dose 2.5-10 µM
PC-12 [8] = assay: Cytotoxicity against rat PC12 cells at 25 uM measured after 24 hrs by MTT assay; format: functional, cell-based
PC-12 [9] = assay: Neuroprotective activity against H2O2 induced rat PC12 cells assessed as increase in cell viability at 1 uM measured after 24 hrs by MTT assay relative to control; format: functional
BV-2 [10] = assay: Cytotoxicity against LPS-induced mouse BV-2 cells assessed as cell viability at 0.5 to 10 uM incubated for 24 hrs by MTT assay; format: toxicity, cell-based; conditions: bv-2, 24 h, dose 0.5-10 µM
BV-2 [11] = assay: Antineuroinflammatory activity in LPS-induced mouse BV-2 cells assessed as inhibition of ROS production at 10 uM preincubated for 30 mins followed by LPS stimulation and measured after 8 hrs by DCFH-DA staining based analysis; format: functional, cell-based; conditions: time 8.5 hrs
BV-2 [12] = assay: Antineuroinflammatory activity in LPS-induced mouse BV-2 cells assessed as inhibition of ROS production preincubated for 30 mins followed by LPS stimulation and measured after 8 hrs by DCFH-DA staining based analysis; format: functional, cell-based; conditions: dose 2.5-10 µM, time 8.5 hrs
BV-2 [13] = assay: Antineuroinflammatory activity in LPS-induced mouse BV-2 cells assessed as inhibition of NO release at 0.5 uM preincubated for 30 mins followed by LPS stimulation and measured after 24 hrs relative to control; format: functional; parameters: scale not given: the % may be the effect or the level left; conditions: time 24.5 hrs
BV-2 [14] = assay: Antineuroinflammatory activity in LPS-induced mouse BV-2 cells assessed as inhibition of NO release at 10 uM preincubated for 30 mins followed by LPS stimulation and measured after 24 hrs relative to control; format: functional; parameters: scale not given: the % may be the effect or the level left; conditions: time 24.5 hrs
BV-2 [15] = assay: Antineuroinflammatory activity in LPS-induced mouse BV-2 cells assessed as inhibition of TNF-alpha release at 2.5 uM preincubated for 30 mins followed by LPS stimulation and measured after 24 hrs relative to control; format: functional; parameters: scale not given: the % may be the effect or the level left; conditions: time 24.5 hrs
BV-2 [16] = assay: Antineuroinflammatory activity in LPS-induced mouse BV-2 cells assessed as inhibition of TNF-alpha release at 10 uM preincubated for 30 mins followed by LPS stimulation and measured after 24 hrs relative to control; format: functional; parameters: scale not given: the % may be the effect or the level left; conditions: time 24.5 hrs
BV-2 [17] = assay: Antineuroinflammatory activity in LPS-induced mouse BV-2 cells assessed as inhibition of IL-1 beta release at 0.5 uM preincubated for 30 mins followed by LPS stimulation and measured after 24 hrs relative to control; format: functional; parameters: scale not given: the % may be the effect or the level left; conditions: time 24.5 hrs
BV-2 [18] = assay: Antineuroinflammatory activity in LPS-induced mouse BV-2 cells assessed as inhibition of TNF-alpha release preincubated for 30 mins followed by LPS stimulation and measured after 24 hrs; format: functional, cell-based; conditions: dose 0.5-10 µM, time 24.5 hrs
BV-2 [19] = assay: Antineuroinflammatory activity in LPS-induced mouse BV-2 cells assessed as inhibition of IL-1 beta release preincubated for 30 mins followed by LPS stimulation and measured after 24 hrs; format: functional, cell-based; conditions: dose 0.5-10 µM, time 24.5 hrs
[20] = AUC (0 to t) in Balb/C mouse brain at 30 mg/kg, IG measured upto 8 hrs by LC-MS analysis; format: ADME, organism-based; conditions: in vivo, po
[21] = Ratio of AUC (0 to t) in Balb/C mouse brain at 30 mg/kg, IG measured upto 8 hrs by LC-MS analysis; format: ADME, organism-based; conditions: po
Mus musculus [22] = assay: Neuroprotective activity in Sodium nitrite induced cognition impairement in C57BL/6 mouse model assessed as improvement in step-down latency time at 1.1 to 9.9 mg/kg, IG administered daily for 7 days; format: functional, organism-based; conditions: dose 1.1-9.9 mg/kg, time 7.0 day
Mus musculus [23] = assay: Neuroprotective activity in Sodium nitrite induced cognition impairement in C57BL/6 mouse model assessed as decrease in MAD level administered daily as IG for 7 days; format: functional, organism-based; conditions: dose 1.1-9.9 mg/kg, time 7.0 day
Mus musculus [24] = assay: Neuroprotective activity in Sodium nitrite induced cognition impairement in C57BL/6 mouse model assessed as decrease in MAD level at 9.9 mg/kg, IG administered daily for 7 days; format: functional; conditions: time 7 day
Mus musculus [25] = assay: Neuroprotective activity in Sodium nitrite induced cognition impairement in C57BL/6 mouse model assessed as increase in SOD activity administered daily as IG for 7 days; format: functional, organism-based; conditions: dose 1.1-9.9 mg/kg, time 7.0 day
Mus musculus [26] = assay: Neuroprotective activity in Sodium nitrite induced cognition impairement in C57BL/6 mouse model assessed as increase in SOD activity at 9.9 mg/kg, IG administered daily for 7 days; format: functional; conditions: time 7 day
Mus musculus [27] = assay: Neuroprotective activity in Sodium nitrite induced cognition impairement in C57BL/6 mouse model assessed as increase in SOD activity at 5.0 mg/kg, IG administered daily for 7 days; format: functional, organism-based; conditions: time 7.0 day
Mus musculus [28] = assay: Neuroprotective activity against Abeta42 induced cognition impairement in AD mouse model assessed as improvement in latency time at 1.1 to 9.9 mg/kg, IG administered daily for 7 days by passive avoidance test; format: functional, organism-based; conditions: dose 1.1-9.9 mg/kg, time 7.0 day
Mus musculus [29] = assay: Neuroprotective activity against Abeta42 induced cognition impairement in AD mouse model assessed as alleviation of learning deficit administered daily as IG for 7 days by passive avoidance test; format: functional, organism-based; conditions: time 7.0 day
[30] = target: Amyloid-beta precursor protein (Homo sapiens) (UniProt P05067); assay: Inhibition of amyloid beta (1 to 42) (unknown origin) fibrillation assessed as reduction in Cu2+ induced shorter fibrils at 25 uM measured after 24 hrs by TEM analysis
[31] = target: Amyloid-beta precursor protein (Homo sapiens) (UniProt P05067); assay: Inhibition of amyloid beta (1 to 42) (unknown origin) fibrillation assessed as reduction in Cu2+ induced thick fibrils at 25 uM measured after 24 hrs by TEM analysis
[32] = Metal chelating activity assessed as compound-Al3+ complex formation by measuring bathochromic shift at 301 to 330nm in the presence of AlCl3 by UV-Visible spectrophotometric analysis
[33] = Metal chelating activity assessed as compound-Cu2+ complex formation by measuring hyperchromic shift in the presence of CuCl2 by UV-Visible spectrophotometric analysis
[34] = Metal chelating activity assessed as compound-Fe2+ complex formation by measuring hyperchromic shift in the presence of FeSO4 by UV-Visible spectrophotometric analysis

inhibition [2]: 35.4%
Activity [3]: 42.5%
AUCt [20]: 681.3 ng·h/g
Kp at 8 h [21]: 0.8
inhibition [30]: Active
inhibition [31]: Active
Activity [32]: Active
Activity [33]: Active
Activity [34]: Active
Structure (SMILES): CCCCCC1OC(=O)c2c1cc(OC)c(O)c2O (centres undefined)
Activity [1]: 2.2
Activity (HT-22 [4]): Active
Activity (HT-22 [5]): 89.2%
Activity (HT-22 [6]): 76.3%
Activity (HT-22 [7]): Dose-Dependent Effect
Activity (PC-12 [8]): inactive
Activity (PC-12 [9]): 68.1%
Activity (BV-2 [10]): Non-Toxic
Activity (BV-2 [11]): Active
Activity (BV-2 [12]): Dose-Dependent Effect
Activity (BV-2 [13]): 31.1%
Activity (BV-2 [14]): 77.3%
Activity (BV-2 [15]): 40.1%
Activity (BV-2 [16]): 75.8%
Activity (BV-2 [17]): 36.6%
Activity (BV-2 [18]): Dose-Dependent Effect
Activity (BV-2 [19]): Dose-Dependent Effect
Activity (Mus musculus [22]): Active
Activity (Mus musculus [23]): Dose-Dependent Effect
Activity (Mus musculus [24]): 2.8 nmol/mg
Activity (Mus musculus [25]): Dose-Dependent Effect
Activity (Mus musculus [26]): 193.1 U/mg
Activity (Mus musculus [27]): inactive
Activity (Mus musculus [28]): Active
Activity (Mus musculus [29]): Dose-Dependent Effect
